In patent publication US20190134054A1, “ASSOCIATION OF ANTAGONISTS OF THE VASOPRESSIN RECEPTOR AND CALCIMIMETICS, COMPOSITION AND USE THEREOF FOR THE TREATMENT OF POLYCYSTIC KIDNEY” (UNIVERSITA' DEGLI STUDI DI BARI ALDO MORO, priority 2017, published 2019):
Entries after “also recorded” stand apart in the source; their conditions may differ.

How the values were obtained:
[1] = test system: ciPTECwt cells; assay: Intracellular calcium levels after tecalcet (Fura 2), ciPTECwt cells; assay type: cell-based, human; settings: 10 μM, n=40
Protocol: (§1) The experiments described from Example 1 to Example 5 have been carried out on i) ciPTEC human kidney cells of the proximal tubule isolated from healthy subjects (ciPTECwt), ii) on the same cells silenced for the gene encoding the polycystin 1 (ciPTE-PC1KO) and iii) on ciPTEC cells isolated from patients affected by ADPKD (ciPTEC-PC1Pt).
(§2) Three types of the aforementioned cellular lines have been treated with 10 μM calciomimetic tecalcet, and the result is that the ciPTEC-PC1Pt cells, isolated from patients suffering from the polycystic kidney disease, respond similarly to the ciPTECwt cells to the stimulation with the calciomimetic, thus leading to an increase of intracellular calcium levels (FIG. 4). Such intracellular calcium levels, in the present example, have been detected thanks to the colorant Fura 2 that is sensitive to calcium.
(§3) The ciPTEC-PC1Pt cells respond similarly to the ciPTECwt cells to the stimulation with NPS-R568 calciomimetic, also called tecalcet, at a concentration of 10 μM. […] The intracellular calcium levels have been measured through the colorant Fura 2 that is sensitive to calcium.

[2] = test system: ciPTEC-PC1KO cells; assay: Intracellular calcium levels after tecalcet (Fura 2), ciPTEC-PC1KO cells; assay type: cell-based, human; settings: 10 μM, n=47
Protocol: as §1, §2, §3

[3] = test system: ciPTEC-PC1Pt cells; assay: Intracellular calcium levels after tecalcet (Fura 2), ciPTEC-PC1Pt cells; assay type: cell-based, human; settings: 10 μM, ciPTEC-PC1Pt cells (ADPKD patients), n=30
Protocol: as §1, §2, §3

[4] = test system: ciPTEC-PC1KO cells; assay: Intracellular cAMP levels after tecalcet (FRET), ciPTEC-PC1KO cells; assay type: cell-based, human; settings: 10 μM, 1/netFRET
Description: as §1
(§4) Such cAMP levels have been measured through FRET.
(§5) The cAMP levels have been measured through 1/netFRET.

[5] = test system: ciPTEC-PC1Pt cells; assay: Intracellular cAMP levels after tecalcet (FRET), ciPTEC-PC1Pt cells; assay type: cell-based, human; settings: 10 μM, 1/netFRET
Description: as §1, §4, §5

[6] = test system: mTOR signaling pathway; assay: mTOR signaling: S6 ribosomal protein phosphorylation, ciPTEC-PC1KO cells; assay type: cell-based, human; settings: 10 μM
Description: as §1
(§6) In the present example, the activity of mTOR has been studied by detecting the phosphorylation levels of the S6 ribosomal protein.
(§7) By treating the aforementioned cells with the calciomimetic tecalcet at the concentration of 10 μM, the activity of mTOR is reduced, thus decreasing the S6 phosphorylation.

[7] = test system: mTOR signaling pathway; assay: mTOR signaling: S6 ribosomal protein phosphorylation, ciPTEC-PC1Pt cells; assay type: cell-based, human; settings: 10 μM
Description: as §1, §6, §7

[8] = biological target: T1, V2 receptor (Canis lupus familiaris, UniProt O77808); assay: dDAVP-induced intracellular cAMP levels (1/netFRET) in MDCK cells; assay type: cell-based, canine; settings: dDAVP+TLV vs. dDAVP and CTR
T1 construct: canine kidney cells MDCK endogenously expressing the V2 receptor; endogenous in cells; host or cells: MDCK (canine kidney cells)
T1 sequence (O77808 whole entry): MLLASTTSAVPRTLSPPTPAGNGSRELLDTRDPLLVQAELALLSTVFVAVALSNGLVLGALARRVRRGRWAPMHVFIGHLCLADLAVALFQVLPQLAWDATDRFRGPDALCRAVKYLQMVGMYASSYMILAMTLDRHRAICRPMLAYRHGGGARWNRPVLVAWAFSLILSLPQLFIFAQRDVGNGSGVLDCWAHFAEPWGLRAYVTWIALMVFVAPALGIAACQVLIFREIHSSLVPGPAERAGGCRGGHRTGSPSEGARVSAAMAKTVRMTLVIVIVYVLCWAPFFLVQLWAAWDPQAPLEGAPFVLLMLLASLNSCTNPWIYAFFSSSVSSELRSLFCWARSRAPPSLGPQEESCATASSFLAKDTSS
Description: The effects of the antagonists of the vasopressin receptor on the concentration of intracellular cAMP have been studied in the canine kidney cells MDCK endogenously expressing the V2 receptor.
Such a reduction of the cAMP levels has been detected through 1/netFRET.
Thus, the treatment with Tolvaptan leads to a reduction of the intracellular cAMP levels. The cAMP levels have been measured through 1/netFRET.

[9] = test system: intracellular calcium levels; assay: Intracellular calcium levels after tolvaptan; assay type: cell-based; settings: treatment with Tolvaptan; CTR=67.06±2.6 nM, P<0.0001
Protocol: The treatment with Tolvaptan determines an increase of the intracellular calcium levels (TLV=99.6±4.1 nM; CTR=67.06±2.6 nM, P<0.0001).

| cAMP levels induced by vasopressin (dDAVP) [8] | SMILES | intracellular calcium levels, response vs. ATP 100% [1] [%] | intracellular calcium levels, response vs. ATP 100% [2] [%] | intracellular calcium levels, response vs. ATP 100% [3] [%] | basal intracellular cAMP levels [4] | basal intracellular cAMP levels [5] | S6 phosphorylation levels (mTOR activity) [6] | S6 phosphorylation levels (mTOR activity) [7] | intracellular calcium levels [9] [nM] |
| --- | --- | --- | --- | --- | --- | --- | --- | --- | --- |
| – | COc1cccc([C@@H](C)NCCCc2ccccc2Cl)c1 [tecalcet] | 90.68±2.47 | 24.32±2.59 | 29.51±3.93 | reduces the basal cAMP levels | reduces the basal cAMP levels | comparable levels to those observed in the ciPTECwt cells; also recorded: reduces the phosphorylation of S6 | reduces the phosphorylation of S6 | – |
| comparable to those of the control | Cc1ccccc1C(=O)Nc1ccc(C(=O)N2CCCC(O)c3cc(Cl)ccc32)c(C)c1 (stereo not drawn) [Tolvaptan] | – | – | – | – | – | – | – | 99.6 ± 4.1 |
